Biological target: Nucleic Acid
Assay: Binding affinity to Bacillus subtilis antiterminator AM1A RNA model after 130 mins by FRET assay
Format: nucleic-acid assay

For O=C(Cc1ccccc1)OC[C@H]1OC(=O)N[C@H]1CN1CCN(c2ccccc2)CC1 (racemic), which Kd is on record?
The Kd was > 100000 nM.

Which Kd does the source give for O=C(Cc1ccccc1)OC[C@H]1OC(=O)N[C@@H]1CN1CCN(c2ccccc2)CC1 here?
Its Kd is 12000 nM.

With CC(=O)c1ccc(NC(=O)OC[C@@H]2OC(=O)N[C@H]2CN2CCN(c3ccccc3)CC2)cc1 as the compound, how does the Kd read?
The Kd was 1600 nM.

How did the Kd turn out when CC(=O)c1ccc(NC(=O)OC[C@H]2OC(=O)N[C@@H]2CN2CCN(c3ccccc3)CC2)cc1 was run?
Its Kd is 3000 nM.

O=C(Cc1ccccc1)OC[C@@H]1OC(=O)N[C@H]1CN1CCN(c2ccccc2)CC1 was tested. Which Kd did it give?
The Kd was 16000 nM.

How did the Kd turn out when CC(=O)c1ccc(NC(=O)OC[C@H]2OC(=O)N[C@H]2CN2CCN(c3ccccc3)CC2)cc1 (racemic) was run?
The Kd was 1800 nM.

Biological target: Nucleic Acid
Assay: Binding affinity to Bacillus subtilis antiterminator AM1A RNA model after 70 mins by FRET assay
Format: nucleic-acid assay

O=C(Cc1ccccc1)OC[C@H]1OC(=O)N[C@H]1CN1CCN(c2ccccc2)CC1 (racemic) was tested. Which Kd did it give?
Its Kd is 5.1 µM.

Reference: ChEMBL document CHEMBL1828523, “Synthesis and stereospecificity of 4,5-disubstituted oxazolidinone ligands binding to T-box riboswitch RNA” (J Med Chem, 2011)
